# Test results from US8012944B2, “Method for treating cancer using IAP antisense oligomer and chemotherapeutic agent” (Pharmascience Inc., priority 2003, dated 2011).
# What was measured:
# Format in all cases: cell-based, human
# SF295 cells = test: Cytotoxicity of HIAP1 oligonucleotides measured by total protein; conditions: FIG. 23
# From the text: FIG. 23 is a graph showing the effects of HIAP1 oligonucleotides on cytotoxicity, as measured by total protein.
# HIAP1 mRNA [1] = test: HIAP1 mRNA in SF295 cells, basal conditions (TaqMan); set-up: decrease of HIAP1 mRNA compared to mock or scrambled survivin control: concentration or dose not given beside the values; conditions: for HIAP1 mRNA levels (in words): SF295 cells (FIG. 21)
# Protocol: RNA was extracted from cells lysed in RLT buffer (QIAGEN, Valencia, Calif.), and purified using QIAGEN RNeasy columns/kits. Real-time quantitative PCR was performed on a Perkin-Elmer ABI 7700 Prism PCR machine. RNA was reverse transcribed and amplified according to the TaqMan Universal PCR Master Mix protocol of PE Biosystems, using primers and probes designed to specifically recognize XIAP, HIAP1, survivin, or GAPDH. For human survivin, the forward primer was 5′-[…]-3′ (SEQ ID NO: 263), the reverse primer was 5′-GAAAGGAAAGCGCAACCG-3′ (SEQ ID NO: 264), and the probe was 5′-(FAM)[…](TAMRA)-3′ (SEQ ID NO: 265). For human HIAP1, the forward primer was 5′-[…]-3′ (SEQ ID NO: 266), the reverse primer was 5′-[…]-3′ (SEQ ID NO: 267), and the probe was 5′-(FAM)[…](TAMRA)-3′ (SEQ ID NO: 268). For human XIAP, the forward primer was 5′-[…]-3′ (SEQ ID NO: 269), the reverse primer was 5′-[…]-3′ (SEQ ID NO: 270), and the probe was 5′-(FAM)[…](TAMRA)-3′ (SEQ ID NO: 271). For human GAPDH, the forward primer was 5′-GAAGGTGAAGGTCGGAGTC-3′ (SEQ ID NO: 272), the reverse primer was 5′-GAAGATGGTGATGGGATTC-3′ (SEQ ID NO: 273), and the probe was 5′-(JOE)[…](TAMRA)-3′ (SEQ ID NO: 274). FAM is 6-carboxyfluoroscein, JOE is 6-carboxy-4,5-dichloro-2,7-dimethoxyfluoroscein, and TAMRA is 6-carboxy-N,N,N′,N′-tetramethylrhodamine. FAM and JOE are 5′ reporter dyes, while TAMRA is a 3′ quencher dye.
# Relative quantification of gene expression was performed as described in the PE Biosystems manual using GAPDH as an internal standard. The comparative Ct (cycle threshold) method was used for relative quantitation of IAP mRNA levels compared to GAPDH mRNA levels. Briefly, real-time fluorescence measurements were taken at each PCR cycle and the threshold cycle (Ct) value for each sample was calculated by determining the point at which fluorescence exceeded a threshold limit of 30 times the baseline standard deviation. The average baseline value and the baseline SD are calculated starting from the third cycle baseline value and stopping at the baseline value three cycles before the signal starts to exponentially rise. The PCR primers and/or probes for the specific IAPs were designed to span at least one exon-intron boundary separated by 1 kb or more of genomic DNA, to reduce the possibility of amplifying and detecting genomic DNA contamination. The specificity of the signal, and possible contamination from DNA, were verified by treating some RNA samples with either DNase or RNase, prior to performing the reverse transcription and PCR reaction steps.
# A library of 15 HIAP1 antisense nucleobase oligomers as oligonucleotides was screened for protein knock-down by western blot analysis and for RNA knock-down by TaqMan, using the primers and probes described in Example 3, above, under two different conditions. HIAP1 RNA levels may be detected using standard Northern blot analyses or RT-PCR techniques. The antisense oligonucleotides were administered to cells under basal conditions or under cycloheximide-induction conditions (24 hour treatment with sub-toxic doses). Cycloheximide (CHX) can lead to a 10- to 200-fold induction of HIAP1 mRNA depending on the cell line treated. […] This effect of CHX is via two distinct mechanisms of action. First, CHX activates NFkB, a known transcriptional inducer of HIAP1, by blocking the de novo synthesis of a labile protein, IkB, which is an inhibitor of NFkB. This effect is mimicked by puromycin, another protein synthesis inhibitor, and by TNF-alpha, which induces a signaling cascade leading to the phosphorylation, ubiquination, and degradation of IkB.
# SF295 glioblastoma cells were transfected with lipofectin and oligonucleotide (scrambled survivin, no oligonucleotide, antisense APO 1 to APO 15) or left untreated. […]
# HIAP1 mRNA [2] = test: HIAP1 mRNA in SF295 cells under cycloheximide induction (TaqMan)
# Protocol: (§1) The effect of HIAP1 antisense nucleobase oligomers on HIAP1 protein and mRNA expression was also examined in cells induced to express HIAP1. SF295 cells were transfected with oligonucleotides, or were mock transfected. The transfected cells were then treated with 10 μg/ml cycloheximide for 24 hours to induce 70 kDa HIAP1 mRNA and protein. Protein levels were measured by western blot analysis with an anti-HIAP1 polyclonal antibody, and normalized against actin protein in a re-probing of the same blots. The densitometric scan results were plotted against the mock results (set at 100%) in FIG. 22B. […] The transfection process itself (e.g., mock or scrambled survivin) induces HIAP1 protein compared to the untreated sample as shown on the western immunoblot.
# Controls for this experiment were three oligonucleotides for APO 2: one scrambled sequence (same base composition but random order, 5′-AAGGGCGGCGGAGTGAGAC-3′; SEQ ID NO: 297), one reverse polarity (same base composition, same sequential order but in the opposite direction, 5′-AGAGGACGGAGTCGGAGGC-3′; SEQ ID NO: 298), and one mismatch sequence (containing four base mismatches out of 19 bases, 5′-CGGAGCGTGAGGATGGAGA-3′; SEQ ID NO: 299).
# HIAP1 protein = HIAP1 protein in cycloheximide-induced SF295 cells (western blot)
# From the text: HIAP1 was detected on a western immunoblot using an affinity-purified anti-rat HIAP1 rabbit polyclonal antibody as a primary antibody and was detected by ECL (Amersham) on X-ray film with a secondary horseradish-peroxidase-conjugated anti-rabbit Ig antibody and a chemiluminescent substrate. The anti-HIAP1 polyclonal antibody is raised against a GST-fusion of the rat HIAP1. This antibody cross-reacts with both human and murine HIAP1 and HIAP2.
# as §1
# survivin protein = test: Survivin protein after APO 2 treatment; conditions: after oligo treatment
Sequence,toxicity seen as general decrease in total protein (SF295 cells),HIAP1 mRNA levels (in words) (HIAP1 mRNA [1]),effect on HIAP1 mRNA (and protein) under CHX induction (in words) (HIAP1 mRNA [2]),"decrease in HIAP1 mRNA compared to scrambled survivin control (HIAP1 mRNA [2]; cycloheximide induction conditions, 6 hours after transfection)","decrease of HIAP1 mRNA compared to mock or scrambled survivin control (HIAP1 mRNA [1]; SF295 cells, six hours after transfection)",activity in the HIAP1 protein and mRNA assays (HIAP1 protein),loss of survivin protein (specificity) (survivin protein)
TCTCACAGACGTTGGGCTT (chemistry not given here) [APO 6],evidence of toxicity,stress-induced increase in HIAP1 mRNA,–,–,–,–,–
CGGAGGCTGAGGCAGGAGA (CGGAGGCNGAGGCAGGAGA; chemistry not given here) [APO 2],–,did not cause a stress-induced increase in HIAP1 mRNA,greatest block of CHX-induced upregulation of HIAP1 mRNA and protein,50%,~50%,"high activity, or had significant activity in both the protein and mRNA assays",did not see any loss of survivin protein
